Data as given in US20240384268A1, “Oligonucleotides” (Hudson Institute of Medical Research, priority 2021, published 2024).
pIC50: −log10 of the molar value. In the oligonucleotide strings, read from the 5' end, every base follows the letter of its sugar. An asterisk marks phosphorothioate; unmarked linkages are phosphodiester. Other units and linkages are bracketed, terminal groups are in braces. A string of capitals states the bases alone. d = 2'-deoxy (DNA); m = 2'-O-methyl

Molecular target: T1, human TLR7 (Homo sapiens, UniProt Q9NYK1)
T1 construct: HA; host or cells: 293XL-hTLR7-HA (HEK293)
T1 sequence (Q9NYK1 27-1049): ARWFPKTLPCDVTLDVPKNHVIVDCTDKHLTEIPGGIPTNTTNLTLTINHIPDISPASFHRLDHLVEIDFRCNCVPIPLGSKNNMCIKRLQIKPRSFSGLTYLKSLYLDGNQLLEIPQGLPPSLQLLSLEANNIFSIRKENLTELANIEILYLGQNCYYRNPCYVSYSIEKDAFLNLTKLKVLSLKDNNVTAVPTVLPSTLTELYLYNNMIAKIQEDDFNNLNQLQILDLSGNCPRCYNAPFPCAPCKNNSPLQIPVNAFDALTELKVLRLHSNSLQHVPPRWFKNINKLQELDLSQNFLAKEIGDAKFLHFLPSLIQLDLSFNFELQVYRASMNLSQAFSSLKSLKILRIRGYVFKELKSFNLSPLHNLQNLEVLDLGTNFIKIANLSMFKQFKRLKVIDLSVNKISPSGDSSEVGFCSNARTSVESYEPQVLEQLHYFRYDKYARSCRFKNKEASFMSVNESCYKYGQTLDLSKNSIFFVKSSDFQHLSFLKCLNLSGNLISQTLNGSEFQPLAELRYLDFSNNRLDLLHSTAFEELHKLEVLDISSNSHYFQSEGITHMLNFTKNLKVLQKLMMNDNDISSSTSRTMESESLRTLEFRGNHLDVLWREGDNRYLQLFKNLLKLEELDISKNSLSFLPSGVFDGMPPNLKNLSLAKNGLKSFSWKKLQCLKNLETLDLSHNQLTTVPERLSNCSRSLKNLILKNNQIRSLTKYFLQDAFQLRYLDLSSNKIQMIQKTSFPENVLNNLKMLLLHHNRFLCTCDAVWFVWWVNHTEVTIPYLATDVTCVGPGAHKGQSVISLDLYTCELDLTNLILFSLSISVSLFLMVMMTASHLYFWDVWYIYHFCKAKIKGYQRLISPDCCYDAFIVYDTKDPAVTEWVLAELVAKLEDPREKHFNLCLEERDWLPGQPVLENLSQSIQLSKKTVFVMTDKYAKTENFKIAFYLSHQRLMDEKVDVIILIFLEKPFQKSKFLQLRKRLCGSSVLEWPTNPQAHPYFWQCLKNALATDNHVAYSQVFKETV
Test: HEK-TLR7 NF-κB-luciferase reporter, R848 stimulation
Assay type: cell-based
Conditions: for TLR7 100 nM (averaged NF-κB-Luciferase level relative to R848 condition): ASO 100 nM; for TLR7 100 nM (averaged NF-κB-Luciferase level relative to R848 condition) / TLR7 500 nM (averaged NF-κB-Luciferase level relative to R848 condition): relative to R848 only, given as fraction; for TLR7 500 nM (averaged NF-κB-Luciferase level relative to R848 condition): ASO 500 nM; for TLR7 400 nM: 3mer 2'OMe ASO at 400 nM; for TLR7 400 nM / TLR7 2 uM: value relative to Ligand only = 1.000, NT = 0.000; for TLR7 2 uM: 3mer 2'OMe ASO at 2 uM; for inhibition of TLR7 by 3-mer 2′OMe oligos (in words): 400 nM and 2 μM 3-mer, ~30 min, R848 1 μg/ml
Protocol: In such examples, inhibition of TLR7 activity can be identified by observation of an overall decreased TLR7 response of the cell population, or a lower proportion of cells having TLR7-positive activity as compared to positive control condition in which cells are treated with TLR7 agonist in the absence of the oligonucleotide (or in the presence of an appropriate control inhibitory agent). In one example, 293XLhTLR7 (referred to as HEK-TLR7) cells are transfected with pNF-κB-Luc4 reporter, incubated with an oligonucleotide, and then stimulated with R848. TLR7 activity can be determined by a luciferase assay, which measures activated NF-κB by luminescence. TLR7 activity can also be analysed by measuring cytokine levels, for example by ELISA. […] TLR7 activity may then be assessed by the gene or protein expression of TLR7-responsive genes, such as Tnfα and Oas3.
For cGAS stimulations, cells were treated for indicated duration with ASOs, prior to transfection with ISD70 (human cells) or ISD45 (mouse cells) (the ASOs were not washed off prior to ISD transfection unless otherwise indicated). The cGAS ligands ISD45 (Stetson and Medzhitov, 2006) and ISD70 (also known as VACV-70 (Unterholzner et al., 2010)) (Table 1) were resuspended as follows: 5 1d of sense and 5 μl of antisense strands at 10 μg/μl were added to 90 μl PBS under sterile conditions, heated at 75° C. for 30 min, prior to letting cool down at room temperature and aliquoting (stock at 1 μg/1 l). The ISDs were transfected at a concentration of […] at a ratio of 1 μg:1 μl with Lipofectamine 2000 in Opti-MEM (Thermo Fisher Scientific). HEK-TLR3, HEK-TLR7 and […] were treated with indicated concentration of ASOs for 20-50 min, prior to stimulation with poly(I:C) (Invivogen), R848 (Invivogen), Motolimod (MedChemExpress) and the Class B CpG oligonucleotides ODN 2006 (synthesised by IDT and resuspended in RNase-free TE buffer [Table 1]), respectively. The TLR2/1 agonist PAM3CSK4 (Invivogen), the TLR4 agonist lipopolysaccharide (Invivogen), the Class B CpG oligonucleotides ODN 1826 (synthesised by IDT and resuspended in RNase-free TE buffer), the mouse Sting agonist DMXAA (Cayman) and the human STING agonist (compound #3 from (Raanjulu et al., 2018), referred to as GSK herein—kind gift from Cancer Therapeutics CRC, Australia) were used at indicated concentrations. Aspirin (Sigma—A2093) was resuspended in pure medium to 10 mM, filter sterilised and added to the cells at 2 mM final. All ASOs were synthesised by Integrated DNA Technologies (IDT), and resuspended in RNase-free TE buffer, pH 8.0 (Thermo Fisher Scientific). Cell viability was assessed by adding 1× fresh resazurin solution to the wells (10λ solution made up with 7 mg resazurin [Sigma—R7017] dissolved in 3.5 ml PBS, sterile filtered at […]) for 4 h, prior to reading at with a Fluostar OPTIMA (BMG LABTECH) plate-reader (fluorescence: Excitation 535 nm, Emission 590); wells with medium only and 1× resazurin were used as blanks.
Following transfection, the cells were collected from the 6-wells and aliquoted into 96-wells, just before ASO and overnight TLR stimulation (as above described). Similarly, the LL171 cells expressing and ISRE-Luc reporter were treated overnight.

Substance | TLR7 100 nM (averaged NF-κB-Luciferase level relative to R848 condition) | TLR7 500 nM (averaged NF-κB-Luciferase level relative to R848 condition) | TLR7 400 nM (HEK-TLR7) | TLR7 2 uM (HEK-TLR7) | further results
GGCTGGAATCCGAGTT (antisense; LNA-modified, pattern not given here) [EGFR-4705 LNA KL] | 0.417 | 0.041 |  |  | 
ACU (antisense mA*mC*mU) |  |  | 1.322 | 0.916 | 
dC*dA*dC (CAC; listed as RNA, chemistry not fully specified) |  |  | 1.330 | 0.932 | 
GTCCCCTGTTGACTGG (antisense; LNA-modified, pattern not given here) [HPRT LNA-489 KL] | 0.557 | 0.123 |  |  | 
TGTGATGGCCTCCCAT (antisense; LNA-modified, pattern not given here) [HPRT LNA-334 V1] | 0.315 | 0.090 |  |  | 
CAACACTTCGTGGGGT (antisense; LNA-modified, pattern not given here) [HPRT LNA-667 V1] | 0.663 | 0.476 |  |  | 
mGmUmA (GUA; all 2'-O-methyl, backbone not given here; further chemistry not fully specified) [shortMut1-3b] |  |  | 0.702 | 0.239 | inhibition of TLR7 by 3-mer 2′OMe oligos (in words) (HEK-TLR7): inhibiting TLR7
mG*mG*mU*A*T*C*C*C*C*C*C*C*C*C*C*C*C*C*C*C (GGUATCCCCCCCCCCCCCCC; antisense; sugars from the 5' end m3 d17, all phosphorothioate, methylation of C not given here) [[C2]Mut1-dC] |  |  |  |  | inhibition of R848 sensing by TLR7, short pre-treatment (in words) (HEK-TLR7, 100-500 nM oligo 20-50 min before R848 1 μg/ml): significantly higher TLR7 inhibition than dC20
AGU (antisense mA*mG*mU) |  |  | 1.025 | 0.952 | 
TTCGTGGGGTCCTTTT (antisense; LNA-modified, pattern not given here) [HPRT LNA-661 V1] | 0.487 | 0.178 |  |  | 
GGU (mG*mG*mU) |  |  | 0.938 | 0.847 | 
dG*dC*dG [GCG] |  |  | 1.185 | 0.627 | 
TCCAACACTTCGTGGG (antisense; LNA-modified, pattern not given here) [HPRT LNA-669 V1] | 0.318 | 0.249 |  |  | 
GCCATGCTGGCTCGGA (antisense; LNA-modified, pattern not given here) [CAMSAP1-2584 LNA V1] | 0.638 | 0.175 |  |  | 
dG*dC*dC [GCC] |  |  | 1.360 | 0.645 | 
dA*dG*dC (DNA AGC; listed as DNA, chemistry not fully specified) |  |  | 1.401 | 0.726 | 

Substance | TLR7 100 nM (averaged NF-κB-Luciferase level relative to R848 condition) | TLR7 500 nM (averaged NF-κB-Luciferase level relative to R848 condition) | TLR7 400 nM (HEK-TLR7) | TLR7 2 uM (HEK-TLR7) | further results
mGmUmC (mG*mU*mC) [GUC, 3-mer 2′OMe PS oligo] |  |  | 0.140 | 0.017 | inhibition of TLR7 by 3-mer 2′OMe oligos (in words) (HEK-TLR7): most potent 3-mer inhibiting TLR7
ACACTTCGTGGGGTCC (antisense; LNA-modified, pattern not given here) [HPRT LNA-665 V1] | 0.548 | 0.086 |  |  | 
mGmUmU (mG*mU*mU) [GUU, 3-mer 2′OMe PS oligo] |  |  | 0.781 | 0.119 | inhibition of TLR7 by 3-mer 2′OMe oligos (in words) (HEK-TLR7): inhibiting TLR7
dA*dA*dC (DNA AAC; listed as DNA, chemistry not fully specified) |  |  | 1.019 | 0.770 | 
mGmUmG (mG*mU*mG) [GUG, 3-mer 2′OMe PS oligo] |  |  | 0.449 | 0.072 | inhibition of TLR7 by 3-mer 2′OMe oligos (in words) (HEK-TLR7): inhibiting TLR7
GGTTACGGCTCAGTAT (antisense; LNA-modified, pattern not given here) [CAMSAP1-4295 LNA KL] | 0.438 | 0.140 |  |  | 
UAG (mU*mA*mG) |  |  | 1.158 | 0.918 | 
T*T*A* G*G*G* T*T*A* G*G*G* T*T*A* G*G*G* T*T*A* G*G*G [A151, reference compound] |  |  |  |  | pIC50 (HEK-TLR7, oligo ~30-50 min before 1 μg/ml R848 overnight, read-out: IC50 (R848 sensing by TLR7)): 6.88
TTTTGGCTGGGATCAA (antisense; LNA-modified, pattern not given here) [CAMSAP1-4697 LNA KL] | 0.564 | 0.305 |  |  | 
UAC (mU*mA*mC) |  |  | 1.161 | 1.003 | 
CCAAGATCAGCAGTCT (antisense; LNA-modified, pattern not given here) [CTNN2B-2341 LNA KL] | 0.882 | 0.697 |  |  | 
mUmGmG (mU*mG*mG) [UGG, 3-mer 2′OMe PS oligo] |  |  | 1.029 | 0.989 | 
UUC (mU*mU*mC) |  |  | 0.536 | 0.642 | 
GCU (mG*mC*mU) |  |  | 1.339 | 0.852 | 
GTGTCTGGAAGCTTCC (antisense; LNA-modified, pattern not given here) [CTNN2B-809 LNA V1] | 0.355 | 0.067 |  |  | 
AUA (antisense mA*mU*mA) |  |  | 1.171 | 0.905 | 
